Measurements from patent US9090669B2, “Short fatty acid tail polymyxin derivatives and uses thereof” (priority 2008, dated 2015).
Read-outs that look alike come from different tables or passages of the source. Positions of bridges follow the written chain, without caps; N, C: chain ends. Non-standard residues stand in square brackets, D forms with d. Residues, ends and D or L forms follow the SMILES beside them. *: point of attachment. Octanoyl = CCCCCCCC(=O)*; Dab = NCC[C@H](N)C(=O)O

Columns and labels:
[1] = Basic pharmacokinetics after i.v. bolus in rats; format: in vivo, rat (Sprague-Dawley); conditions: rat
Description: Blood samples were centrifuged to obtain plasma. […] Plasma and urine samples were stored at −80° C. […] NAB 741 was eluted at 6.65±0.05 min and NAB739 was eluted at 9.45±0.05 min.

[2] = test system: E. coli (ATCC25922 and IH3080), K. pneumoniae ATCC13883, and E. cloacae ATCC23355; format: cell-based; conditions: all four strains; NAB741 alone
Description: MICs were determined by using E-strips (Biodisk Ltd., Solna, Sweden) according to the manufacturer's instructions.

Ac. baumannii ATCC19606 = test: E-test MIC of antibacterial agents on Mueller-Hinton agar with or without NAB741; format: cell-based; conditions: Acinetobacter baumannii; A. baumannii ATCC19606; meropenem alone; read-out: MIC of meropenem at NAB 741 concn 0 μg/ml
Description: (§1) Five of the strains originated from ATCC. Acinetobacter baumannii F264 was purchased from Mobidiag Ltd., Helsinki, Finland. The source of E. coli IH3080 has been given in Example 2.
(§2) Sensitization factor was defined as in Example 4. NAB7061 sensitized the meropenem-resistant strain F264 to meropemen by a factor >4.

Ac. baumannii F264 = test: as above; format: cell-based; conditions: Acinetobacter baumannii; A. baumannii F264 (meropenem-resistant); meropenem alone; read-out: MIC of meropenem at NAB 741 concn 0 μg/ml
Description: as §1, §2

[3] = rat, in vivo; cited from earlier work
E. coli IH3080 = test: Agar well growth inhibition on LB plates with or without rifampin; format: cell-based, Escherichia coli; conditions: well containing 4 micrograms of the compound; for Activity w. rifampin: growth inhibition around a well: LB plate containing rifampin 0.1 micrograms/ml; for Direct activity: growth inhibition around a well: LB plates
bacteria = conditions: Sakura et al. (2004); cited from earlier work

Compound | Activity w. rifampin: growth inhibition around a well (E. coli IH3080) [square millimeters] | Direct activity: growth inhibition around a well (E. coli IH3080) [square millimeters] | further results
CCCCCCCC(=O)N[C@H](C(=O)N[C@H](CO)C(=O)N[C@H]1CCNC(=O)[C@H]([C@@H](C)O)NC(=O)[C@H](CCN)NC(=O)[C@H](CCN)NC(=O)[C@H](CC(C)C)NC(=O)[C@@H](Cc2ccccc2)NC(=O)[C@H](CCN)NC1=O)[C@@H](C)O [NAB 739] (Octanoyl-T[dS][Dab][Dab][dF]L[Dab][Dab]T; lactam 3-C) |  |  | clearance ([1]; acetate 1 mg/kg i.v. bolus): 2.63 ± 0.54 mL/min/kg; renal clearance ([1]; acetate 1 mg/kg i.v. bolus): 0.53 ± 0.30 mL/min/kg; volume of distribution ([1]; acetate 1 mg/kg i.v. bolus): 0.222 ± 0.0205 L/kg; half-life ([1]; acetate 1 mg/kg i.v. bolus, plasma): 1.15 ± 0.365 h
CC(=O)N[C@H](C(=O)N[C@H](CO)C(=O)N[C@H]1CCNC(=O)[C@H]([C@@H](C)O)NC(=O)[C@H](CCN)NC(=O)[C@H](CCN)NC(=O)[C@H](CC(C)C)NC(=O)[C@@H](Cc2ccccc2)NC(=O)[C@H](CCN)NC1=O)[C@@H](C)O [NAB 741, acetyl-Thr-DSer-cy[Dab-Dab-DPhe-Leu-Dab-Dab-Thr-]] (Ac-T[dS][Dab][Dab][dF]L[Dab][Dab]T; lactam 3-C (inferred)) |  |  | MIC of NAB741 [2]: > 16 µg/mL; urinary recovery ([1]; in vivo, iv, 1 mg/kg): 50.9±13.6 % of dose in 24 h; volume of distribution ([1]; in vivo, iv, 1 mg/kg): 0.243 ± 0.024 L/kg
C[C@@H](O)[C@H]1C(=O)N2C(C(=O)O)=C(S[C@@H]3CN[C@H](C(=O)N(C)C)C3)[C@H](C)[C@H]12 [meropenem] |  |  | MIC (Ac. baumannii ATCC19606): 0.75 µg/mL; MIC (Ac. baumannii F264): > 32 µg/mL
Colistin (polymyxin E) |  |  | clearance [3]: 5.2 ± 0.4 mL/min/kg; half-life [3]: 1.24 ± 0.22 h; renal clearance [3]: 0.010 ± 0.008 mL/min/kg; volume of distribution [3]: 0.496 ± 0.06 L/kg
Deacylcolistin | 87 | 79 | 
Deacylpolymyxin B | 79 | 57 | 
Polymyxin B | 95 | 79 | 
Polymyxin B heptapeptide | 0 | 0 | 
Polymyxin B nonapeptide [Polymyxin B nonpeptide] | 20 | 0 | 
acetyl-Thr-DAsn-cy[Dab-Dab-DPhe-Leu-Dab-Dab-Thr-] [NAB 745] | 50 | 0 | 
octanoyl polymyxin B heptapeptide [Octanoyl PMBH] | 0 | 0 | Concentration that inhibits the growth of bacteria (bacteria): 128 µg/mL
